Laboratory results taken from patent US7666871B2, “Oxazole derivatives as histamine H3 receptor agents, preparation and therapeutic uses” (Eli Lilly and Company, priority 2004, dated 2010).

Target: T1, human H3R (Homo sapiens, UniProt Q9Y5N1)
T1 construct: expressed in transfected cells; pcDNA3.1(+) vector, G418 selection), membranes
Test: Histamine H3 Receptor Binding Assay (competitive inhibition SPA, membranes of transfected HEK293 cells)
Settings: Ki's at the human H3R
Source text: The compounds of the present invention can readily be evaluated by using a competitive inhibition Scintillation Proximity Assay (SPA) based on a H3R binding assay using R-[3H] α methylhistamine as ligand. Stable cell lines, including but not limited to HEK can be transfected with cDNA coding for H3R to prepare membranes used for the binding assay. The technique is illustrated below (Preparation of Histamine Receptor Subtype Membranes) for the histamine receptor subtypes.
cDNA for the human histamine 1 receptor (H1R) was cloned into a mammalian expression vector containing the CMV promoter (pcDNA3.1(+), Invitogen) and transfected into HEK293 cells using the FuGENE Tranfection Reagent (Roche Diagnostics Corporation). Transfected cells were selected using G418 (500 μ/mL). Colonies that survived selection were grown and tested for histamine binding to cells grown in 96-well dishes using a scintillation proximity assay (SPA) based radioligand binding assay. Briefly, cells, representing individual selected clones, were grown as confluent monolayers in 96-well dishes (Costar Clear Bottom Plates, #3632) by seeding wells with 25,000 cells and growing for 48 hours (37° C., 5% CO2). […] Plates were counted in a Wallac Trilux 1450 Microbeta scintillation counter. […]
cDNA for the human histamine 3 receptor was cloned and expressed as described in (A. Preparation H1R membranes), above. […]

T1 sequence (Q9Y5N1 whole entry): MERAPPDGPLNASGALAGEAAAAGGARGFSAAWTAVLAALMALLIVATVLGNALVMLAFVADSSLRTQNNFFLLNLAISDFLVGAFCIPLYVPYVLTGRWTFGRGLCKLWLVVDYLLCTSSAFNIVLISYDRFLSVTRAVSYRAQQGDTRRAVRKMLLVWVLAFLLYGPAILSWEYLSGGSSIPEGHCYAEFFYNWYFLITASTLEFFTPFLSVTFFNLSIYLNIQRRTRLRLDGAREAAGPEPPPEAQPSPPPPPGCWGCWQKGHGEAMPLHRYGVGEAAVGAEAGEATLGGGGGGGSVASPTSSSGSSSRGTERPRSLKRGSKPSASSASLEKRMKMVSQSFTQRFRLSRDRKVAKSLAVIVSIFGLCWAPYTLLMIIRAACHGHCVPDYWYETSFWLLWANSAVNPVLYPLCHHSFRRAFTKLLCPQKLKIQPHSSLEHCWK

Structure (SMILES)	Ki
CS(=O)(=O)Nc1ccc(-c2ccc(-c3nc(CN4CCCC4)co3)cc2)cc1	1.6 nM
COC[C@@H]1CCCN1CCc1nc(-c2ccc(-c3cccnc3)cc2)oc1C	14.3 nM
